Literature values in patent US20260071096A1, “BONDED ABRASIVE ARTICLES AND METHODS OF MANUFACTURE” (3M INNOVATIVE PROPERTIES COMPANY, priority 2020, published 2026).

Details: species and route not given

c1ccc2ccccc2c1 [Naphthalene, naphthalene]
LD50 (mean lethal dose): 490 mg/kg
